Experimental data reported in the NIST ThermoML archive (doi:10.1016/j.jct.2017.09.027).
Numbers after ± are expanded uncertainties.

Details: 298.15 K; 100 kPa; Liquid; Vibrating tube method

mass density	SMILES
698.71 ± 1.7 kg/m3	CCCCCCCC [octane]
687.32 ± 1.7 kg/m3	CC(C)CC(C)(C)C [2,2,4-trimethylpentane]
713.93 ± 1.7 kg/m3	CCCCCCCCC [nonane]
831.61 ± 2 kg/m3	C1CCCCCCC1 [cyclooctane]

SMILES	mass density
CCCCCCC [heptane]	679.71 ± 1.6 kg/m3
N#CCc1ccccc1 [benzeneacetonitrile]	1012.89 ± 2.6 kg/m3
N#CCCc1ccccc1 [3-phenylpropanenitrile]	996.44 ± 2.4 kg/m3
